Target: T1, JerF (Sorangium cellulosum, UniProt A1YBT9)
T1 construct: codon-optimised full-length gene in pCOLD-I, N-terminal His6 tag, expressed in E. coli BL21 (DE3), cell-free extract (not purified)
Experiment: HPLC-MS of O-methylated product after bioconversion with cell-free extract
Type: biochemical
Details: 5 mM MgCl2, 0.25 mM substrate

T1 sequence (A1YBT9 entry or part of it): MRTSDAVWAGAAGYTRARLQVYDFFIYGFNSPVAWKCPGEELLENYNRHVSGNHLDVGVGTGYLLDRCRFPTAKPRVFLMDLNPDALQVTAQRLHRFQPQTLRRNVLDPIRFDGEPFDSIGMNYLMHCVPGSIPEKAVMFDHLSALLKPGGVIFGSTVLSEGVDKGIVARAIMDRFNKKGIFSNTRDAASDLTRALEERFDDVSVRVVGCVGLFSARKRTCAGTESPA

Structure (SMILES)	HPLC-MS of O-methylated product after bioconversion with cell-free extract (SAM tosylate 4.18 mM, 25 mM HEPES, pH 7.5, 28 °C, 20 h)	HPLC-MS of O-methylated product after bioconversion with cell-free extract (SAM tosylate 0.97 mM, 40 mM Tris HCl, pH 8.8, 28 °C, 16 h, empty-vector and heat-denatured lysate controls run)
CC(C)/C=C/C1CC(=O)C(C)C(=O)O1 (racemic) [rac-14e, (E)-3-Methyl-6-(3-methylbut-1-en-1-yl)dihydro-2H-pyran-2,4(3H)-dione]	Full conversion was reproducibly obtained for compounds rac-14b, rac-14c, rac-14e and rac-14f	
C/C=C/C1CC(=O)C(C)C(=O)O1 (racemic) [rac-14d, (E)-3-Methyl-6-(prop-1-en-1-yl)dihydro-2H-pyran-2,4(3H)-dione]		rac-14d was almost completely converted into the respective O-methylated product mixture rac-15d
